# From ChEMBL document CHEMBL1138920, “Putative therapeutic agents for the learning and memory deficits of people with Down syndrome” (Bioorg Med Chem Lett, 2006)
# The source made the active and inactive calls. The calls are words filed in the database; no cut-off is given here.
# Experiments:
# [1] = biological target: Tyrosine-protein kinase ABL1 (Homo sapiens) (UniProt P00519); assay: Activity against Abl at 10 uM in the presence of 100 uM ATP relative to control
# [2] = biological target: cAMP-dependent protein kinase (PKA) (Homo sapiens) (UniProt P22694+P17612+P22612); assay: Activity against PKA at 10 uM in the presence of 100 uM ATP relative to control; type: protein assay
# [3] = biological target: Mitogen-activated protein kinase 1 (Homo sapiens) (UniProt P28482); assay: Activity against MAPK2 at 10 uM in the presence of 100 uM ATP relative to control
# Sequence of Mitogen-activated protein kinase 1 (Homo sapiens) (P28482 whole entry): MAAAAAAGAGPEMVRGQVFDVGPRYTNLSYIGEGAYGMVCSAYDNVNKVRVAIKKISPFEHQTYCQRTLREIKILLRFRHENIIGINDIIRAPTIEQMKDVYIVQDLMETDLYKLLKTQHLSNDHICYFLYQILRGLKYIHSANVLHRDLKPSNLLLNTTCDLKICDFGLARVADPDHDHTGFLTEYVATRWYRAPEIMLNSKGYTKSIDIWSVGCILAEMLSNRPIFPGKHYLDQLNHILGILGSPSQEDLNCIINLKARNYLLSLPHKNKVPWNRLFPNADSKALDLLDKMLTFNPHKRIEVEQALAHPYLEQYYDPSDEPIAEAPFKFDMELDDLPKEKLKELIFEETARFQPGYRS
# [4] = biological target: T1, MAP kinase-activated protein kinase 5 (Homo sapiens) (UniProt Q8IW41); assay: Activity against PRAK at 10 uM in the presence of 100 uM ATP relative to control
# T1 sequence (whole entry): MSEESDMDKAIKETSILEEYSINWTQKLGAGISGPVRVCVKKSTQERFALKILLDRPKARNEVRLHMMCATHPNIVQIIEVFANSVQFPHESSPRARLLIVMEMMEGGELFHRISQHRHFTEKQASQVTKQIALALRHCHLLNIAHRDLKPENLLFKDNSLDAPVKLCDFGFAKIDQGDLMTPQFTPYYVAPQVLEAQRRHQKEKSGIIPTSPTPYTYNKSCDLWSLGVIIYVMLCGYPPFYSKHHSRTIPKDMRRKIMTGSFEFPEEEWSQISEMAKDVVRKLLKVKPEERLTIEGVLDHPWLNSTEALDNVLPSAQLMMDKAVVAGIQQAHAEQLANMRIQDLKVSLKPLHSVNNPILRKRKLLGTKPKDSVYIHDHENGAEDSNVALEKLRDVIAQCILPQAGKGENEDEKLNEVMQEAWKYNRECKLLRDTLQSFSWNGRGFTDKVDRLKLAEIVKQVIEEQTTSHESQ
# [5] = biological target: Mitogen-activated protein kinase 14 (Homo sapiens) (UniProt Q16539); assay: Activity against SAPK2-alpha at 10 uM in the presence of 100 uM ATP relative to control
# Sequence of Mitogen-activated protein kinase 14 (Homo sapiens) (Q16539 whole entry): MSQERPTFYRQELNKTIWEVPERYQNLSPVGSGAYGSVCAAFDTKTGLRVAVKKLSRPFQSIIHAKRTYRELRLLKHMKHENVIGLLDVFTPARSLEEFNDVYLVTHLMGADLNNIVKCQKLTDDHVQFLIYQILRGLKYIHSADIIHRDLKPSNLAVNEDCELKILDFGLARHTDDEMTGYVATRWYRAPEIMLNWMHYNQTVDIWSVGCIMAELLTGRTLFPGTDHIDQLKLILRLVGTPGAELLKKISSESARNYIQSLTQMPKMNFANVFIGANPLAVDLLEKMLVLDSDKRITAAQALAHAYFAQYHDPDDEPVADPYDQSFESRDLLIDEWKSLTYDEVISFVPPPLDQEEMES
# [6] = biological target: Protein kinase C alpha type (Homo sapiens) (UniProt P17252); assay: Activity against PKCalpha at 10 uM in the presence of 100 uM ATP relative to control
# [7] = biological target: CaM kinase II (Homo sapiens) (UniProt Q13557+Q13555+Q13554+Q9UQM7); assay: Activity against CaMK2 at 10 uM in the presence of 100 uM ATP relative to control; type: protein assay
# [8] = biological target: Dual specificity tyrosine-phosphorylation-regulated kinase 1A (Mus musculus) (UniProt Q61214); assay: Inhibition of mouse Dyrk1A autophosphorylation in HEk293 cells at 10 uM; type: cell-based
# [9] = biological target: Casein kinase II (Homo sapiens) (UniProt P67870+P68400+P19784); assay: Activity against CK2 at 10 uM in the presence of 100 uM ATP relative to control; type: protein-complex assay
# [10] = biological target: Dual specificity tyrosine-phosphorylation-regulated kinase 1A (Mus musculus, UniProt Q61214); assay: Inhibition of mouse Dyrk1A autophosphorylation in HEk293 cells; type: cell-based
# [11] = biological target: Cyclin-dependent kinase 5/CDK5 activator 1 (Homo sapiens) (UniProt Q00535+Q15078); assay: Activity against CDK5/p35 at 10 uM in the presence of 100 uM ATP relative to control; type: protein-complex assay
# Sequence of Cyclin-dependent kinase 5/CDK5 activator 1 (Homo sapiens) (Q00535 whole entry): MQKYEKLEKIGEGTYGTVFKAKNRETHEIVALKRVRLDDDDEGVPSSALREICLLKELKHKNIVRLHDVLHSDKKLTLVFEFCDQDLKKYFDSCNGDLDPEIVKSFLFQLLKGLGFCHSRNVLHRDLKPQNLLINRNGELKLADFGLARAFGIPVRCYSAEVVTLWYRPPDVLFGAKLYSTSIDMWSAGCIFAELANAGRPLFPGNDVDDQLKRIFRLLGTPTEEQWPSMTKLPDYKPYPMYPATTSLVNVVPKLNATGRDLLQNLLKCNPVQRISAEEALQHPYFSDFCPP
# Sequence of Cyclin-dependent kinase 5/CDK5 activator 1 (Homo sapiens) (Q15078 99-307 partner limits assumed): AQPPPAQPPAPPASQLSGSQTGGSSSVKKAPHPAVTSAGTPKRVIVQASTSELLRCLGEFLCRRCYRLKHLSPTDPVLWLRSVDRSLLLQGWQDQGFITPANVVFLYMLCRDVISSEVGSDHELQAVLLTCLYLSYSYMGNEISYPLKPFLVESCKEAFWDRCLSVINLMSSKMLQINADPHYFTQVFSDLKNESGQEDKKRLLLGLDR
# [12] = biological target: Tyrosine-protein kinase Lck (Homo sapiens) (UniProt P06239); assay: Activity against Lck at 10 uM in the presence of 100 uM ATP relative to control
# Sequence of Tyrosine-protein kinase Lck (Homo sapiens) (P06239 2-509 limits assumed): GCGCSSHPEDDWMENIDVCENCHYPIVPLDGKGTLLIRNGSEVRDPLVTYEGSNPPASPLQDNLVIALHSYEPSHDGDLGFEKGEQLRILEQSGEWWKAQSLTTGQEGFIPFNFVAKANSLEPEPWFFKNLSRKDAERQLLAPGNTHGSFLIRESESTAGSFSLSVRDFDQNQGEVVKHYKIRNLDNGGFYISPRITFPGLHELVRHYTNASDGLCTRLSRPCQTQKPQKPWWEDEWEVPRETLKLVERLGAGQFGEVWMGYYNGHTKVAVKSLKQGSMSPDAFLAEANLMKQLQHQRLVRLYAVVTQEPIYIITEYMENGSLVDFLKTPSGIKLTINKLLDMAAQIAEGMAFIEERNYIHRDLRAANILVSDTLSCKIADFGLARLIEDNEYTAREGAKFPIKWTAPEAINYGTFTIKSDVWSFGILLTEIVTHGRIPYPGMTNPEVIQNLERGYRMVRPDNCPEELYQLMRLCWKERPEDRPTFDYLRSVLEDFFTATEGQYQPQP
# [13] = biological target: Cyclin-dependent kinase 2/cyclin A (Homo sapiens) (UniProt P24941+P20248+P78396); assay: Activity against CDK2/cyclinA at 10 uM in the presence of 100 uM ATP relative to control; type: protein-complex assay
# [14] = biological target: Mitogen-activated protein kinase 10 (Homo sapiens) (UniProt P53779); assay: Activity against JNK3 at 10 uM in the presence of 100 uM ATP relative to control
# Sequence of Mitogen-activated protein kinase 10 (Homo sapiens) (P53779 whole entry): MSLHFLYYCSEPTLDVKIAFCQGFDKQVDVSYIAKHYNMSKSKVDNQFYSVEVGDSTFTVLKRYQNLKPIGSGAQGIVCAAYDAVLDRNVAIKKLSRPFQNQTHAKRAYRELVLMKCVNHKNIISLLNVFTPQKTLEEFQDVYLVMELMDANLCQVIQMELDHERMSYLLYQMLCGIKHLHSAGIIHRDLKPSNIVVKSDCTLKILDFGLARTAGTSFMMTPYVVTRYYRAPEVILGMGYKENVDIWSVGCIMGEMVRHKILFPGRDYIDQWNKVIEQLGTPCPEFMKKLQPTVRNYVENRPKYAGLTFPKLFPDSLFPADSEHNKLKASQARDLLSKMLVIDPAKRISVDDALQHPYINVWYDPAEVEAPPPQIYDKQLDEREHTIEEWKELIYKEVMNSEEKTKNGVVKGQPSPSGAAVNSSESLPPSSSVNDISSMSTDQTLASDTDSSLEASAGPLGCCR
# [15] = biological target: Glycogen synthase kinase-3 beta (Homo sapiens) (UniProt P49841); assay: Activity against GSK3-beta at 10 uM in the presence of 100 uM ATP relative to control
# Sequence of Glycogen synthase kinase-3 beta (Homo sapiens) (P49841 whole entry, looked up): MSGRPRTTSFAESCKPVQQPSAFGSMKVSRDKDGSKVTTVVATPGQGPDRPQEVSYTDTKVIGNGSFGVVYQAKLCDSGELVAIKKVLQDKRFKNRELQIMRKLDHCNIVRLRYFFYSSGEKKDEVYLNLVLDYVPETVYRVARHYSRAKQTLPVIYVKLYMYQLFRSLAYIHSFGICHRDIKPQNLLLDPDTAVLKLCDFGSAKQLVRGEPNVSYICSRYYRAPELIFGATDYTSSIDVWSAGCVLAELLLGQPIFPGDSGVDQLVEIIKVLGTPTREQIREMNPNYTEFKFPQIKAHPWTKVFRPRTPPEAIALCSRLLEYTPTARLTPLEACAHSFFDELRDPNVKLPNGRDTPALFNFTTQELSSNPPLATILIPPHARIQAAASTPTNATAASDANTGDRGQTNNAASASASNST
# [16] = biological target: Dual specificity protein kinase CLK3 (Homo sapiens) (UniProt P49761); assay: Activity against CLK3 at 10 uM in the presence of 100 uM ATP relative to control
# Sequence of Dual specificity protein kinase CLK3 (Homo sapiens) (P49761 whole entry, looked up): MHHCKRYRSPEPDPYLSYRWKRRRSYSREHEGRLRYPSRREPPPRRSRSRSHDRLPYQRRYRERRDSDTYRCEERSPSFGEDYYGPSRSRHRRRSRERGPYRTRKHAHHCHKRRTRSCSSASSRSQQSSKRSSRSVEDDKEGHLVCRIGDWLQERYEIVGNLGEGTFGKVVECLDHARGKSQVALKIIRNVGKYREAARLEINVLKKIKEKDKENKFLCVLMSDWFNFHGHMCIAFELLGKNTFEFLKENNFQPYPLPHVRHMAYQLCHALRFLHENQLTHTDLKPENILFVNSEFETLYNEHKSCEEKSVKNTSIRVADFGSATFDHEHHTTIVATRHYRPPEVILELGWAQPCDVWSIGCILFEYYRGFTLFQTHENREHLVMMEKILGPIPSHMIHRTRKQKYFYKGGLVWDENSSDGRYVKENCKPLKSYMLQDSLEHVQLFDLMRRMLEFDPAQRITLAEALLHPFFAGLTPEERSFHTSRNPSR
# [17] = biological target: T2, Dual specificity tyrosine-phosphorylation-regulated kinase 2 (Homo sapiens) (UniProt Q92630); assay: Activity against DYRK2 at 10 uM in the presence of 100 uM ATP relative to control
# T2 sequence (whole entry): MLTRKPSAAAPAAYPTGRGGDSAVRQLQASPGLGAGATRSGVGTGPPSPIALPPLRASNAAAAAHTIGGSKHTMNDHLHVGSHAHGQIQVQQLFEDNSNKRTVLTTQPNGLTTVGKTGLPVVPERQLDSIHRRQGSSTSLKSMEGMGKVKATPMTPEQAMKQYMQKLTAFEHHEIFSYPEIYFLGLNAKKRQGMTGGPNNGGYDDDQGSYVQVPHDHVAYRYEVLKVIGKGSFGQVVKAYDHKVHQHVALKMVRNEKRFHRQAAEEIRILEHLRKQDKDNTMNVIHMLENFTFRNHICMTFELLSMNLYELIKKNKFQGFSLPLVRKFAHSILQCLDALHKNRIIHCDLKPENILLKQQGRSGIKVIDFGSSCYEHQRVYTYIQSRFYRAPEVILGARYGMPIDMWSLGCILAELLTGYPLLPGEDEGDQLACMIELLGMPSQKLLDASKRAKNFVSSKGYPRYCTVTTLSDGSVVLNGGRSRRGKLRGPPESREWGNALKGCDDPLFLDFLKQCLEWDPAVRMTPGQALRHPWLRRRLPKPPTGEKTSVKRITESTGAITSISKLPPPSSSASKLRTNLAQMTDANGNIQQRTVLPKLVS
# Sequence of Tyrosine-protein kinase ABL1 (Homo sapiens) (P00519 whole entry): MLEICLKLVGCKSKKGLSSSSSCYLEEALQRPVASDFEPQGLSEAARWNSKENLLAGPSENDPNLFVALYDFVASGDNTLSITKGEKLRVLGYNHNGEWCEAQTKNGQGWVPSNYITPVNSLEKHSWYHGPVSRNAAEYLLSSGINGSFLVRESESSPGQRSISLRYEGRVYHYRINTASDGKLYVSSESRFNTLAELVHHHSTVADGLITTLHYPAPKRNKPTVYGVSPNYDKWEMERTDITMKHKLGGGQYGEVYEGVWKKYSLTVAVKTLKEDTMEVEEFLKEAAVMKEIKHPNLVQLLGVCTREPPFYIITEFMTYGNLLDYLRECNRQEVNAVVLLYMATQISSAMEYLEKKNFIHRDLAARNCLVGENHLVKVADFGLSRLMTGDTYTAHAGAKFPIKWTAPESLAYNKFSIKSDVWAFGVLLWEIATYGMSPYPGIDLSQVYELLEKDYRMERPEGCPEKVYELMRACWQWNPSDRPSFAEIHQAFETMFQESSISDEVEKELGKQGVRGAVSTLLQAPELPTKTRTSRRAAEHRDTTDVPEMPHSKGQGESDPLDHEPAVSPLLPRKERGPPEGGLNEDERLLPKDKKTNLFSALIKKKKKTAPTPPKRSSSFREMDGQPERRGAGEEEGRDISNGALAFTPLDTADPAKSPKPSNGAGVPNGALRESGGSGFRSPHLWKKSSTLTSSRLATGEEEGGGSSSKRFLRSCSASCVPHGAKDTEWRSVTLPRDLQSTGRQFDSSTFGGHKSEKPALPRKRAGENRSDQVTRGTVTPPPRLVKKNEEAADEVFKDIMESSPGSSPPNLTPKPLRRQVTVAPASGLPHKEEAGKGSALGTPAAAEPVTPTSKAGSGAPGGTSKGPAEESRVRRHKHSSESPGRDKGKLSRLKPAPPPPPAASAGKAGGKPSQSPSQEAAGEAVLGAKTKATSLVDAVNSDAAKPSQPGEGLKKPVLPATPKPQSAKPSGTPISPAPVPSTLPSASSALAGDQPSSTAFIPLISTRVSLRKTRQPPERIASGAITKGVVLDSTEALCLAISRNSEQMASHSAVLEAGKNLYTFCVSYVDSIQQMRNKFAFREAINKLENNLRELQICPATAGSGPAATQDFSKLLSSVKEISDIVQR
compound,measurement,setting,value
COc1cc(/C=C2\C(=O)NN(c3ccc(Cl)c(Cl)c3)C2=O)ccc1O,Activity,[1],94%
same,Activity,[2],107%
same,Activity,[3],122%
same,Activity,[4],71%
same,Activity,[5],112%
same,Activity,[6],78%
same,Activity,[7],72%
same,inhibition,[8],82%
same,Activity,[9],61%
same,IC50,[10],2.5 µM
same,Activity,[11],99%
same,Activity,[12],105%
same,Activity,[13],90%
same,Activity,[14],86%
same,Activity,[15],69%
same,Activity,[16],36%
same,Activity,[17],59%
CCOC(=O)c1cnc2ccc(C(=O)OC)cc2c1Nc1cccc(C(C)=O)c1,inhibition,[8],51%
same,IC50,[10],50 µM
Cc1cccc(Nc2nc(-c3c(C)nc4ncccn34)cs2)c1,inhibition,[8],25%
same,IC50,[10],> 50 µM
COc1cccc(NC(=O)Nc2nnc(-c3ccncc3)s2)c1,Activity,[1],96%
same,Activity,[2],104%
same,Activity,[3],138%
same,Activity,[4],69%
same,Activity,[5],101%
same,Activity,[6],83%
same,Activity,[7],98%
same,inhibition,[8],41%
same,Activity,[9],110%
same,IC50,[10],5 µM
same,Activity,[11],104%
same,Activity,[12],113%
same,Activity,[13],96%
same,Activity,[14],98%
same,Activity,[15],47%
same,Activity,[16],11%
same,Activity,[17],77%
Brc1ccc(Nc2nc(NCc3ccco3)c3ccccc3n2)cc1,inhibition,[8],8%
same,IC50,[10],5 µM
CCOC(=O)c1ccc2ncc(C(=O)OCC)c(Nc3ccc(C)c(Br)c3)c2c1,inhibition,[8],13%
same,IC50,[10],50 µM
COc1ccc(O)c(-c2cc(-c3ccccc3Cl)n[nH]2)c1,IC50,[10],20 µM
C=CCOc1ccc(Br)cc1/C=C1\SC(Nc2ccc(Cl)c(C(=O)O)c2)=NC1=O,inhibition,[8],inactive
same,IC50,[10],20 µM
CN1C(=O)/C(=C2\SC(Nc3ccc(F)cc3)=NC2=O)c2ccccc21,inhibition,[8],12%
same,IC50,[10],50 µM
COc1ccc(O)c(-c2cc(-c3ccccc3Cl)[nH]n2)c1,inhibition,[8],43%
COc1cc(/C=C2\C(=O)NN(c3cccc(Cl)c3)C2=O)ccc1O,inhibition,[8],74%
same,IC50,[10],> 50 µM
CCOC(=O)c1ccc2ncc(C(=O)OCC)c(Nc3ccc(NC(C)=O)cc3)c2c1,inhibition,[8],52%
same,IC50,[10],10 µM
